Laboratory results: patent US9072734B2, “Quaternary ammonium salt compounds” (Teijin Pharma Limited, priority 2009, dated 2015)
Structures can show the parent of a compound that is named as a salt.

Key:
[1] = biological target: T1, human M3 muscarinic receptor (Homo sapiens, UniProt P20309); assay: Inhibitory effect on methacholine-induced calcium influx, FLIPR assay, CHO-K1 cells stably expressing the human M3 muscarinic receptor; format: cell-based; details: inhibition of calcium influx induced by methacholine
T1 construct: expressed in transfected cells; host or cells: CHO-K1
T1 sequence (P20309 whole entry): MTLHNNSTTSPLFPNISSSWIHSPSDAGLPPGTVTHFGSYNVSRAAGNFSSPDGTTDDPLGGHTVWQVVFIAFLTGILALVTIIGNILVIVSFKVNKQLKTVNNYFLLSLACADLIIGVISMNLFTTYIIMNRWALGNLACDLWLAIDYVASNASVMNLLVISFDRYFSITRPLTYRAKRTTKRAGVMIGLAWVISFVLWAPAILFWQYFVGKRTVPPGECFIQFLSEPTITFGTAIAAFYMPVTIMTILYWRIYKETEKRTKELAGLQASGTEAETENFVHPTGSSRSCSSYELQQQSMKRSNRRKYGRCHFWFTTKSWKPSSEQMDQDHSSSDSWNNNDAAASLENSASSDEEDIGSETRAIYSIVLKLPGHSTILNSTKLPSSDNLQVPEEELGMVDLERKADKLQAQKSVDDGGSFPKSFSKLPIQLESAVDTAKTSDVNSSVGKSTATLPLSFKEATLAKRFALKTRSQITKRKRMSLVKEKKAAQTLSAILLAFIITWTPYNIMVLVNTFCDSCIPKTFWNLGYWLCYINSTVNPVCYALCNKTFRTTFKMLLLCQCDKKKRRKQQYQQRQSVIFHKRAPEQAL
Description: Muscarinic receptor subtypes (M1, M3 and M5 receptors), which couple to Gq proteins, activate the phospholipase C (PLC) pathway upon agonist binding to the receptor. As a result, the activated PLC hydrolyzes phosphatidyl inositol diphosphate (PIP2) to diacyl glycerol (DAG) and […] (IP3), which in turn generates calcium release from intracellular stores, i.e., endoplasmic and sarcoplasmic reticula. By utilizing FLIPR (Molecular Devices, Inc.) assay in which a calcium sensitive dye (Component A) is used that fluoresces when free calcium binds, the increase in intracellular calcium is measured on the basis of the change in the fluorescence intensity.
Methacholine was added to CHO-K1 cells stably expressing the human M3 muscarinic receptor to induce calcium influx and evaluate the inhibitory effect of test compounds. In the experiment, a FLIPR Calcium assay kit (Molecular Devices, Inc.) was used.
CHO-K1 cells stably expressing the human M3 muscarinic receptor suspended in Ham's F-12 media (Invitrogen, Co.) containing 10% fetal bovine serum (FBS) were seeded into 96-well FLIPR plates at a volume of 100 μL/well. Next day, 60 μL/well of Non-wash-dye solution (Hank's buffered salt solution, HBSS, containing 20 mM HEPES and 6.5 mM probenecid) was added to the cells, which were then incubated for an hour at 37° C. in the presence of 5% carbon dioxide. 20 μL of 10 concentrations of test compound solutions (HBSS containing 1% DMSO, 20 mM HEPES, 2.5 mM probenecid and 0.05% bovine serum albumin, BSA) prepared at concentrations in a range of 0.01-1000 nM with 2-fold serial dilution) were added, followed by incubation for 180 seconds. Then, 20 μL of 30 nM methacholine solution (HBSS containing 20 mM HEPES, 2.5 mM probenecid and 0.05% bovine serum albumin, BSA) was added, and fluorescence intensity was traced by the intracellular calcium influx measuring device FLIPR 96 (Molecular Devices, Inc.) for 170 seconds. The difference between the lowest and the highest values of the fluorescence intensity (FI) over the period of the measurement was used as a measured value. The percentages of inhibition by the test compounds were calculated according to the following formula from the measured value of the methacholin-added and test compound non-added sample (FIpositive), the measured value of the methacholin non-added and test compound non-added sample (FInegative), and the measured value of the methacholin-added and test compound-added sample (FItest). (%) Percentage of inhibition by test compound=[(1−(FItest−FInegative)/(FIpositive−FInegative)]×100
The 50% inhibitory concentrations (IC50 values) of test compounds were analyzed by a four-parameter logistic model using XLfit4 (IDBS, Ltd.) for the percentage of the inhibition by different concentrations of test compounds.

[2] = biological target: T2, human β2 adrenergic receptor (Homo sapiens, UniProt P07550); assay: Whole-cell cAMP Flashplate assay using CHO-K1 cells stably expressing human β2 adrenergic receptor; format: cell-based; details: cAMP production
T2 construct: expressed in transfected cells; host or cells: CHO-K1
T2 sequence (P07550 whole entry): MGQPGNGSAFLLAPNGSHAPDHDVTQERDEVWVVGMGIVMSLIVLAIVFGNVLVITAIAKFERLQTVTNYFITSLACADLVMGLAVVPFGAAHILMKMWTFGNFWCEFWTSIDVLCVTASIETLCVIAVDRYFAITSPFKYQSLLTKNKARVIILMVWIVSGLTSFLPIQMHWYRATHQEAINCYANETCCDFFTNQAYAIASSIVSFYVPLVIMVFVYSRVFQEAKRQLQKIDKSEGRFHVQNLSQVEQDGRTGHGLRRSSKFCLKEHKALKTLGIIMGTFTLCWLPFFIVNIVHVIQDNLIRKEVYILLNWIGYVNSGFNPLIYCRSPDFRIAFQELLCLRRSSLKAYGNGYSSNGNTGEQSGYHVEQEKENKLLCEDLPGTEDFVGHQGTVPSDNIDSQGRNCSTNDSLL
Experimental: The β2 adrenergic receptor, which couples to Gs proteins, activates adenylate cyclase upon agonist binding to the receptor. As a result, cAMP is produced in cells. The activation ability of the β2 adrenergic receptor can be measured by measuring the amount of the cAMP with cAMP-Screen System (Applied Biosystems).
CHO-K1 cells expressing the human β2 adrenergic receptor suspended in Ham's F-12 media containing 10% FBS were seeded into 96-well plates at a volume of 100 μL/well. Next day, they were washed with 200 μL PBS(−), to which 80 μL of 0.5 mM IBMX solution (Ham's F-12 media containing 0.05% BSA) was then added, followed by incubation for 20 minutes at 37° C. in the presence of 5% carbon dioxide. 20 μL of 9 concentrations of test compound solutions (0.5 mM IBMX solution containing 1% DMSO) prepared at concentrations in a range of 0.01-1000 nM with 2-fold serial dilution) were added, followed by incubation for 20 minutes at 37° C. in the presence of 5% carbon dioxide. Then, 100 μL of Assay/Lysis Buffer (a reagent that comes with cAMP Screen System) was added. The cells were lysed by pipetting, further incubated for 30 minutes at 37° C., and then frozen at −80° C. After several days, samples, thawed at room temperature, were treated according to the protocol of cAMP Screen System, and then chemiluminescence was measured by EnVision (PerkinElmer, Inc.). The amount of cAMP was calculated from the standard curve for the standard attached to cAMP Screen System.
The concentrations of a test compound at which 50% of its maximal effect is reached (EC50 values) were analyzed by a four-parameter logistic model using XLfit4 (IDBS, Ltd.) for the amounts of cAMP production at different concentrations of the test compounds.

SMILES | IC50 [1] | EC50 [2]
C[N+]1(C)CCC(OC(=O)Nc2cc(CCCCCCCCCNC[C@H](O)c3ccc(O)c4[nH]c(=O)ccc34)ccc2-c2ccccc2)CC1 [Example 76, 4-({[5-(9-{[(2R)-2-hydroxy-2-(8-hydroxy-2-oxo-1,2-dihydroquinolin-5-yl)ethyl]amino}nonyl)-2-phenylphenyl]carbamoyl}oxy)-1,1-dimethylpiperidin-1-ium trifluoroacetate] | 38 nM | 14.1 nM
C[N+]1(C)[C@@H]2CC(OC(=O)Nc3cc(CCC(=O)Nc4ccc(CNC[C@H](O)c5ccc(O)c6[nH]c(=O)ccc56)cc4Cl)ccc3-c3ccccc3)C[C@H]1[C@@H]1O[C@@H]12 (stereo partly drawn) [Example 44, (1R,2R,4S,5S,7S)-7-({[5-(2-{[2-chloro-4-({[(2R)-2-hydroxy-2-(8-hydroxy-2-oxo-1,2-dihydroquinolin-5yl)ethyl]amino}methyl)phenyl]carbamoyl}ethyl)-2-phenylphenyl]carbamoyl}oxy)-9,9-dimethyl-3-oxa-9-azatricyclo[3.3.1.0^2,4]nonan-9-ium trifluoroacetate] | 13.9 nM | 1.7 nM
C[N+]1(C)CCC(OC(=O)Nc2cc(CCNC(=O)c3ccc(CNC[C@H](O)c4ccc(O)c5[nH]c(=O)ccc45)cc3)ccc2-c2ccccc2)CC1 [Example 80, 4-({[5-(2-{[4-({[(2R)-2-hydroxy-2-(8-hydroxy-2-oxo-1,2-dihydroquinolin-5-yl)ethyl]amino}methyl)phenyl]formamide}ethyl)-2-phenylphenyl]carbamoyl}oxy)-1,1-dimethylpiperidin-1-ium trifluoro acetate] | 29.9 nM | 2.4 nM
C[N+]1(C)[C@@H]2C[C@@H](OC(=O)Nc3ccc(CCCC(=O)Nc4ccc(CNC[C@H](O)c5ccc(O)c6[nH]c(=O)ccc56)cc4Cl)cc3-c3ccccc3)C[C@H]1[C@@H]1O[C@@H]12 [Example 71, (1R,2R,4S,5S,7S)-7-({[4-(3-{[2-chloro-4-({[(2R)-2-hydroxy-2-(8-hydroxy-2-oxo-1,2-dihydroquinolin-5-yl)ethyl]amino}methyl)phenyl]carbamoyl}propyl)-2-phenylphenyl]carbamoyl}oxy)-9,9-dimethyl-3-oxa-9-azatricyclo[3.3.1.0^2,4]nonan-9-ium trifluoroacetate] | 38.9 nM | 0.2 nM
CCOc1cc(NC(=O)CCCc2ccc(-c3ccccc3)c(NC(=O)OC3CC[N+](C)(C)CC3)c2)ccc1CNC[C@H](O)c1ccc(O)c2[nH]c(=O)ccc12 [Example 27, 4-({[5-(3-{[5-ethoxy-4-({[(2R)-2-hydroxy-2-(8-hydroxy-2-oxo-1,2-dihydroquinolin-5-yl)ethyl]amino}methyl)phenyl]carbamoyl}propyl)-2-phenylphenyl]carbamoyl}oxy)-1,1-dimethylpiperidin-1-ium trifluoroacetate] | 16.1 nM | 1.5 nM
C[N+]1(C)CCC(OC(=O)Nc2cc(CCCCC(=O)Nc3ccc(CNC[C@H](O)c4ccc(O)c5[nH]c(=O)ccc45)cc3)ccc2-c2ccccc2)CC1 [Example 49, 4-({[5-(4-{[4-({[(2R)-2-hydroxy-2-(8-hydroxy-2-oxo-1,2-dihydroquinolin-5-yl)ethyl]amino}methyl)phenyl]carbamoyl}butyl)-2-phenylphenyl]carbamoyl}oxy)-1,1-dimethylpiperidin-1-ium trifluoroacetate] | 13.9 nM | 2.3 nM

Second part, the compound after the results:

IC50 [1] | EC50 [2] | SMILES
15.8 nM | 2.2 nM | Cc1cc(CNC[C@H](O)c2ccc(O)c3[nH]c(=O)ccc23)ccc1NC(=O)CCCc1ccc(-c2ccccc2)c(NC(=O)OC2CC[N+](C)(C)CC2)c1 [Example 22, 4-({[5-(3-{[4-({[(2R)-2-hydroxy-2-(8-hydroxy-2-oxo-1,2-dihydroquinolin-5-yl)ethyl]amino}methyl)-2-methylphenyl]carbamoyl}propyl)-2-phenylphenyl]carbamoyl}oxy)-1,1-dimethylpiperidin-1-ium trifluoroacetate]
12.9 nM | 0.5 nM | C[N+]1(C)CCC(OC(=O)Nc2cc(CCCC(=O)Nc3ccc(CNC[C@H](O)c4ccc(O)c5[nH]c(=O)ccc45)cc3Br)ccc2-c2ccccc2)CC1 [Example 30, 4-({[5-(3-{[2-bromo-4-({[(2R)-2-hydroxy-2-(8-hydroxy-2-oxo-1,2-dihydroquinolin-5-yl)ethyl]amino}methyl)phenyl]carbamoyl}propyl)-2-phenylphenyl]carbamoyl}oxy)-1,1-dimethylpiperidin-1-ium trifluoroacetate]
22.1 nM | 4.6 nM | C[N+]1(C)[C@@H]2C[C@@H](OC(=O)Nc3cc(CCCC(=O)Nc4ccc(CNC[C@H](O)c5ccc(O)c6[nH]c(=O)ccc56)cc4)ccc3-c3ccccc3)C[C@H]1[C@@H]1O[C@@H]12 [Example 33, (1R,2R,4S,5S,7S)-7-({[5-(3-{[4-({[(2R)-2-hydroxy-2-(8-hydroxy-2-oxo-1,2-dihydroquinolin-5-yl)ethyl]amino}methyl)phenyl]carbamoyl}propyl)-2-phenylphenyl]carbamoyl}oxy)-9,9-dimethyl-3-oxa-9-azatricyclo[3.3.1.0^2,4]nonan-9-ium trifluoroacetate]
15.7 nM | 25.1 nM | C[N+]1(C)CCC(OC(=O)Nc2cc(CCCC(=O)Nc3ccc(CNC[C@H](O)c4ccc(O)c5[nH]c(=O)ccc45)c(C(F)(F)F)c3)ccc2-c2ccccc2)CC1 [Example 31, 4-({[5-(3-{[4-({[(2R)-2-hydroxy-2-(8-hydroxy-2-oxo-1,2-dihydroquinolin-5-yl)ethyl]amino}methyl)-3-(trifluoromethyl)phenyl]carbamoyl}propyl)-2-phenylphenyl]carbamoyl}oxy)-1,1-dimethylpiperidin-1-ium trifluoroacetate]
27.1 nM | 4.3 nM | COc1cc(NC(=O)CCCc2ccc(-c3ccccc3)c(NC(=O)O[C@@H]3C[C@@H]4[C@H]5O[C@H]5[C@H](C3)[N+]4(C)C)c2)ccc1CNC[C@H](O)c1ccc(O)c2[nH]c(=O)ccc12 [Example 36, (1R,2R,4S,5S,7S)-7-({[5-(3-{[4-({[(2R)-2-hydroxy-2-(8-hydroxy-2-oxo-1,2-dihydroquinolin-5-yl)ethyl]amino}methyl)-3-methoxyphenyl]carbamoyl}propyl)-2-phenylphenyl]carbamoyl}oxy)-9,9-dimethyl-3-oxa-9-azatricyclo[3.3.1.0^2,4]nonan-9-ium trifluoroacetate]
21.7 nM | 0.4 nM | COc1cc(NC(=O)CCCc2ccc(-c3ccccc3)c(NC(=O)OC3C[C@H]4CC[C@H](C3)[N+]4(C)C)c2)c(Cl)cc1CNC[C@H](O)c1ccc(O)c2[nH]c(=O)ccc12 (stereo partly drawn) [Example 48, (1R,3R)-3-{[5-(3-{[2-chloro-4-({[(2R)-2-hydroxy-2-(8-hydroxy-2-oxo-1,2-dihydroquinolin-5-yl)ethyl]amino}methyl)-5-methoxyphenyl]carbamoyl}propyl)-2-phenylphenyl]carbamoyl}oxy)-8,8-dimethyl-8-azabicyclo[3.2.1]nonan-8-ium trifluoroacetate]
